{"source": "paper PMC1976386", "about": "(Molecular Microbiology, 2007)", "molecular_target": "CaKip1p (Candida albicans, UniProt A0A1D8PT88)", "conditions": "read-out: Value"}
{"smiles": "Nc1ncnc2c1ncn2[C@@H]1O[C@H](COP(=O)(O)OP(=O)(O)OP(=O)(O)O)[C@@H](O)[C@H]1O", "note": "[ATP]", "values": [{"measurement": "Km", "result": "7.4 ± 0.7", "unit": "µM"}]}
